Reference: patent US5691361A, “1,4-dihydropyridine derivatives, a process for their preparation and their use for influencing the blood flow” (priority 1995, dated 1997)

Key:
[1] = tested on: rabbit aorta strips; test: Vasoconstrictory effect in rabbit aorta strips at low depolarizing conditions (10 mM K+); type: cell-based; conditions: for EC50: Oryctolagus cuniculus, rabbit aorta strips predepolarized with 10 mM K+
Protocol: The vasoconstrictory effects are measured at low depolarizing conditions in rabbit aorta strips. 10 mM K^+ is used to obtain a low starting concentration. Subsequently, increasing concentrations of the test compound are added in order to achieve an increase in contraction.
The EC50 (negative logarithm of the molar concentration required to increase the calcium induced contraction of low K^+ depolarized rabbit aorta by 50%) is analysed by interpolation of the corresponding concentration-response curves (table 4).

[2] = tested on: left stimulated rabbit atrium / rabbit aorta; test: Tissue selectivity: ratio of IC50 in left stimulated isolated rabbit atrium to IC50 in K+-depolarized rabbit aorta; type: cell-based; conditions: ratio of IC50 in left stimulated rabbit atrium and IC50 in rabbit aorta
Protocol: (§1) The vasodilatory effects are tested as follows: an isolated aorta of the thorax of white New Zealand rabbits is secured in an organ bath. The contractile activity of the helical throacic aorta strip is recorded after depolarization with Krebs solution without calcium (35 mM, potassium) and addition of external calcium pulses (1.5 mM). The compounds are added in increasing concentrations before calcium is reintroduced.
The electrical stimulation is fixed at 1 Hz. After one hour equilibration the percentage contraction is set at 100%, increased concentrations of the compounds are added to the bath every 15 minutes and the changes in the contractile force are recorded. The IC50 values are calculated by interpolation from the concentration-effect relationship determined in each of the experiments.

[3] = tested on: spontaneously hypertensive rats (SHR); test: Antihypertensive activity in spontaneously hypertensive rats (systolic blood pressure, tail plethysmography); type: in vivo, spontaneously hypertensive rats (SHR) of Okamoto strain; conditions: Rattus norvegicus, single oral dose 20 mg/kg, 2 hours after treatment
Protocol: The antihypertensive activity of the compounds of the invention is tested in spontaneously hypertensive rats (SHR) of Okamoto strain. Systolic blood pressure is monitored by tail plethysmography. The animals are trained for two weeks for the monitoring process. On the day of the experiment the rats are placed in an oven for two hours at 31°±1° C. and blood pressure is recorded graphically. The measurement recorded is the average of five measurements taken in each case. Only animals with basic values of systolic blood pressure over 170 mm Hg are considered hypertensive. After 24 hours fasting the compound to be tested (20 mg/kg) and/or a carrier (20% PEG 400 in 0.5% aqueous methyl cellulose (10 ml/kg)) is orally administered to the selected hypertensive animals by means of a gastric cannula. The values are expressed in percentage variation 2 hours after treatment.

[4] = tested on: rabbit aorta; test: Vasodilatory effect: inhibition of calcium-induced contraction of K+-depolarized isolated rabbit aorta strips; type: cell-based, white New Zealand rabbits; conditions: Oryctolagus cuniculus
Protocol: as §1

SMILES | EC50 [1] [nM] | vasoconstrictory properties (in words) [1] | Selectivity index (Atrium/Aorta) [2] | change in vivo at 20 mg/kg [3] [%] | IC50 [4] [nM]
COC(=O)C1=C(C)NC(C)=C([N+](=O)[O-])C1c1ccccc1C(F)(F)F (stereo not drawn) [BayK-8644, 2,6-dimethyl-3-nitro-4-(2-trifluoromethylphenyl)-1,4-dihydropyridine-5-carboxylic acid methylester, reference compound] | 13 | – | – | – | –
CC1=C(C(=O)OCN2C(=O)c3ccccc3S2(=O)=O)C(c2cccc([N+](=O)[O-])c2)C(C(=O)OC(C)(C)C)=C(C)N1 (stereo not drawn) [Example 53, 5-Tert.-butoxycarbonyl-2,6-dimethyl-4-(3-nitrophenyl)-1,4-dihydropyridine-3-carboxylic acid-N-(1,2-benzisothiazolyl-3(2H)one-1,1-dioxide)-methylester] | 9.3 | has vasoconstrictory properties | – | – | –
CC1=C(C(=O)OCCN2C(=O)c3ccccc3S2(=O)=O)C(c2cccc(Cl)c2Cl)C(C(=O)OC(C)(C)C)=C(C)N1 (stereo not drawn) [Example 55, 5-Tert.-butoxycarbonyl-4-(2,3-dichlorophenyl)-2,6-dimethyl-1,4-dihydropyridine-3-carboxylic acid-2-[N-(1,2-benzisothiazolyl-3(2H)one-1,1-dioxide)]-ethylester] | – | – | 122 | 35.8 | 2.3
COC(=O)C1=C(C)NC(C)=C(C(=O)OC)C1c1ccccc1[N+](=O)[O-] [nifedipine, 2,6-dimethyl-4-(2-nitrophenyl)-1,4-dihydropyridine-3,5-dicarboxylic acid 3,5-dimethylester, reference compound] | – | – | 39 | 35.4 | 2.9
